Experimental data taken from patent US6825230B2, “Spiro and dispiro 1,2,4-trixolane antimalarials” (Medicines for Malaria Venture MMV, priority 2002, dated 2004).
Values after ≈ are worked out from the molar mass of the structure shown. Like-named read-outs stand apart in the source and are kept apart here.

What was measured:
[1] = test system: chloroquine-resistant K1 strain of P. falciparum; experiment: In vitro antimalarial semiautomated microdilution assay ([3H]-hypoxanthine incorporation), K1 strain; format: cell-based, Plasmodium falciparum; conditions: Plasmodium falciparum
How it was run: (§1)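 Asynchronous stock-culture parasites (intraerythrocytic forms), serial compound dilutions; readout [3H]-hypoxanthine uptake; IC50 via Logit regression.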

[2] = test system: chloroquine-sensitive NF54 strain of P. falciparum; experiment: In vitro antimalarial semiautomated microdilution assay ([3H]-hypoxanthine incorporation), NF54 strain; format: cell-based, Plasmodium falciparum; conditions: Plasmodium falciparum
How it was run: as §1

[3] = test system: ANKA strain of P. berghei; experiment: Single dose STI in vivo screen in infected mice; parameters: species or system Plasmodium berghei; conditions: for Survival (days) 10 mg/kg po: single 10 mg/kg po in 3% ethanol and 7% Tween 80; for Survival (days) 10 mg/kg po / Survival (days) 10 mg/kg SSV po / Survival (days) 10 mg/kg sc: untreated 6-7 days; for Activity (%) 10 mg/kg po: single 10 mg/kg po in 3% ethanol and 7% Tween 80 on day 1 post-infection; for Activity (%) 10 mg/kg po / Activity (%) 10 mg/kg SSV po / Activity (%) 10 mg/kg sc / Activity (%) 3 mg/kg SSV po: percent reduction in parasitemia on day 3; for Survival (days) 10 mg/kg SSV po: single 10 mg/kg po in SSV; for Activity (%) 10 mg/kg SSV po: single 10 mg/kg po in standard suspending vehicle (SSV) on day 1 post-infection; for Survival (days) 10 mg/kg sc: single 10 mg/kg sc in 3% ethanol and 7% Tween 80; for Activity (%) 10 mg/kg sc: single 10 mg/kg sc in 3% ethanol and 7% Tween 80 on day 1 post-infection; for Survival (days) 3 mg/kg SSV po / Activity (%) 3 mg/kg SSV po: single 3 mg/kg po in SSV
[4] = chloroquine-resistant K1 strain, 72 h incubation, read-out: IC50 (ng/ml) K1
[5] = chloroquine-sensitive NF54 strain, 72 h incubation, read-out: IC50 (ng/ml) NF54
[6] = K1, 72 h, read-out: IC50 (ng/ml) K1, chloroquine-resistant K1 strain, 72 h incubation
[7] = NF54, 72 h, read-out: IC50 (ng/ml) NF54, chloroquine-sensitive NF54 strain, 72 h incubation

SMILES	IC50 [1, 4] [ng/mL]	IC50 [2, 5] [ng/mL]	Survival (days) 10 mg/kg po [3] [days]	Activity (%) 10 mg/kg po [3] [%]	Survival (days) 10 mg/kg SSV po [3] [days]	Activity (%) 10 mg/kg SSV po [3] [%]	Survival (days) 10 mg/kg sc [3] [days]	Activity (%) 10 mg/kg sc [3] [%]	IC50 [1, 6] [ng/mL]	IC50 [2, 7] [ng/mL]	Survival (days) 3 mg/kg SSV po [3] [days]	Activity (%) 3 mg/kg SSV po [3] [%]
O=C(C[C@H]1CC[C@]2(CC1)OOC1(O2)C2CC3CC(C2)CC1C3)N1CCCCC1 (stereo partly drawn) [OZ218]	2 (≈ 5.13 nM)	3 (≈ 7.7 nM)	10.0	98	14.3	99.30	9.0	99.68	–	–	–	–
NC(=O)NC[C@H]1CC[C@]2(CC1)OOC1(O2)C2CC3CC(C2)CC1C3 (stereo partly drawn) [OZ265]	0.56 (≈ 1.66 nM)	1.6 (≈ 4.76 nM)	13.0	99	9.7	98	11.7	99.67	–	–	–	–
Fc1ccc(OC2CCC3(CC2)OOC2(O3)C3CC4CC(C3)CC2C4)cc1 (stereo not drawn) [OZ193]	–	–	9.3	99.75	8.0	93	11.0	99.92	5.5 (≈ 14.7 nM)	8.3 (≈ 22.2 nM)	–	–
CS(=O)(=O)NC[C@H]1CC[C@]2(CC1)OOC1(O2)C2CC3CC(C2)CC1C3 (stereo partly drawn) [OZ257]	42 (≈ 113 nM)	21 (≈ 56.5 nM)	8.3	99.00	7.7	99.49	9.7	99.84	–	–	–	–
O=C(C[C@H]1CC[C@]2(CC1)OOC1(O2)C2CC3CC(C2)CC1C3)Nc1nccs1 (stereo partly drawn) [OZ217]	2 (≈ 4.94 nM)	2 (≈ 4.94 nM)	7.0	67	6.0	8	8.0	98	–	–	–	–
NC(=O)C[C@H]1CC[C@]2(CC1)OOC1(O2)C2CC3CC(C2)CC1C3 (stereo partly drawn) [OZ243]	–	–	7.3	87	8.7	97	6.3	70	0.91 (≈ 2.83 nM)	1.1 (≈ 3.42 nM)	–	–
NC(=O)CNC(=O)C[C@H]1CC[C@]2(CC1)OO[C@]1(O2)C2CC3CC(C2)CC1C3 [OZ306]	–	–	–	–	9.2	–	–	–	3.9 (≈ 10.3 nM)	3.6 (≈ 9.51 nM)	8.2	87
NC(=O)CN(CC(N)=O)C[C@H]1CC[C@]2(CC1)OOC1(O2)C2CC3CC(C2)CC1C3 (stereo partly drawn) [OZ236]	–	–	6.3	89	7.7	86	7.7	98.61	2 (≈ 4.91 nM)	2 (≈ 4.91 nM)	–	–
CC(=O)NC[C@H]1CC[C@]2(CC1)OOC1(O2)C2CC3CC(C2)CC1C3 (stereo partly drawn) [OZ262]	0.63 (≈ 1.88 nM)	0.84 (≈ 2.5 nM)	11.7	96	12.3	98	10.0	99.39	–	–	–	–
c1ccc2c(c1)-c1ccccc1C21OOC2(O1)C1CC3CC(C1)CC2C3 (stereo not drawn) [OZ94, Adamantane-2-spiro-3′-1′,2′,4′-trioxolane-5′-spiro-9″-fluorene]	–	–	6.0	21	5.7	0	5.3	11	57 (≈ 165 nM)	28 (≈ 80.8 nM)	–	–
c1c[nH]c([C@H]2CC[C@]3(CC2)OOC2(O3)C3CC4CC(C3)CC2C4)n1 (stereo partly drawn) [OZ251]	0.6 (≈ 1.82 nM)	0.35 (≈ 1.06 nM)	6.7	29	6.0	6	9.0	99.87	–	–	–	–
O=C1c2ccccc2C(=O)N1C[C@H]1CC[C@@]2(CC1)OOC1(O2)C2CC3CC(C2)CC1C3 (stereo partly drawn) [OZ167]	–	–	6.0	0	6.0	6	7.3	97	6.7 (≈ 15.8 nM)	> 10	–	–
c1ccc(CNC[C@H]2CC[C@]3(CC2)OO[C@]2(O3)C3CC4CC(C3)CC2C4)nc1 [OZ292]	0.19 (≈ 0.494 nM)	0.26 (≈ 0.676 nM)	–	–	7.0	74	–	–	–	–	6.6	46
